The numbers were not newly measured in PMC5731934, “Modifying glycyrrhetinic acid liposomes with liver-targeting ligand of galactosylated derivative: preparation and evaluations” (Oncotarget, 2017), which cites them from elsewhere.

On the set-up of the series: method as in PMID 11752037.

`CC1(C)[C@@H](O)CC[C@]2(C)[C@H]3C(=O)C=C4[C@@H]5C[C@@](C)(C(=O)O)CC[C@]5(C)CC[C@@]4(C)[C@]3(C)CC[C@@H]12` [GA, Glycyrrhetinic acid]: the solubility in water was under 10 µg/mL.
